# Assay results published in PubChem BioAssay (NCI).
# “And” between values parts separate entries of the source, which are not always exact repeats. Equal entries are not always repeated.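 Cultured in 96-well plates, cells were exposed to test compound for 48 hours across five concentrations. At the GI50, growth is halved. Definition used: TGI = concentration required for complete inhibition of growth.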
# What was measured:
# Assay in all cases: growth of human tumour cells (NCI), 48 h
# A549 NSCLC = tested on: A549 NSCLC
# CCRF-CEM leukemia = tested on: CCRF-CEM leukemia
# HCT-116 colon = tested on: HCT-116 colon
# HOP-62 NSCLC = tested on: HOP-62 NSCLC
# HT29 colon = tested on: HT29 colon
# M14 melanoma = tested on: M14 melanoma
# NCI-H522 lung = tested on: NCI-H522 lung
# RXF 393 renal = tested on: RXF 393 renal
# SNB-75 CNS = tested on: SNB-75 CNS
# UO-31 renal = tested on: UO-31 renal
SMILES,GI50 (A549 NSCLC),TGI (A549 NSCLC),GI50 (CCRF-CEM leukemia),TGI (CCRF-CEM leukemia),GI50 (HCT-116 colon),TGI (HCT-116 colon),GI50 (HOP-62 NSCLC),TGI (HOP-62 NSCLC),GI50 (HT29 colon),TGI (HT29 colon),GI50 (M14 melanoma),TGI (M14 melanoma),GI50 (NCI-H522 lung),TGI (NCI-H522 lung),GI50 (RXF 393 renal),TGI (RXF 393 renal),GI50 (SNB-75 CNS),TGI (SNB-75 CNS),GI50 (UO-31 renal),TGI (UO-31 renal)
N#Cc1c(N)nc(NCc2ccccc2)c(C#N)c1-c1ccc(Cl)cc1Cl,> 100 µM,> 100 µM,10.2 µM,28.6 µM,> 100 µM,> 100 µM,> 51.9 µM,> 85.9 µM,> 100 µM,> 100 µM,> 53.4 µM,> 100 µM,> 68.7 µM,> 100 µM,52.4 µM,> 100 µM,22.9 µM,99 µM,> 100 µM,> 100 µM
O=c1oc2ccc(-c3ccc(F)cc3F)cc2c(=O)n1-c1ccc(Cl)c(C(F)(F)F)c1,3.33 µM,> 100 µM,2.63 µM,8.75 µM,1.75 µM,3.49 µM,1.93 µM,4.09 µM,3.07 µM,> 100 µM,2.45 µM,6.79 µM,2.09 µM,8.97 µM,1.7 µM,4.59 µM,1.7 µM,4.2 µM,2.44 µM,8.4 µM
CC(=O)OC1CC[C@@]2(C)C(CC[C@]3(C)C2CC=C2[C@@H]4C(C)[C@H](C)CCC4(C)CCC23C)[C@@]1(C)C(=O)O (stereo partly drawn),–,45.6 µM,–,66.3 µM,–,30.8 µM,–,43.1 µM,–,47.4 µM,–,52.4 µM,–,45.4 µM,–,49.4 µM,–,35.8 µM,–,39.9 µM
CC(=O)N(O)Cc1ccccc1,–,> 100 µM,–,> 100 µM,–,> 100 µM,–,> 100 µM,–,> 100 µM,–,> 100 µM,–,> 100 µM,–,> 100 µM,–,> 100 µM,–,> 100 µM
Cc1cccc(NC(=O)/C=C/c2ccc([N+](=O)[O-])cc2)c1,–,> 56.2 µM,–,> 100 µM,–,> 52.9 µM,–,33.4 µM,–,> 70.3 µM,–,> 59.4 µM,–,> 53.9 µM,–,> 52.7 µM,–,> 60.4 µM,–,> 50.4 µM
Nc1ccccc1C#C/C=C\C#Cc1c(F)c(F)c(F)c(F)c1F,11.6 µM,25.5 µM,0.385 µM,14.2 µM,16 µM,31.1 µM,12.7 µM,27.8 µM,19.7 µM,50.7 µM,15 µM,29.4 µM,11.9 µM,31.3 µM,4.74 µM,22 µM,41.8 µM,> 100 µM,14.6 µM,28 µM
S=C=NCCc1ccccc1,–,6.38 µM,–,4.25 µM,–,1.74 µM,–,1.35 µM,–,0.554 µM,–,1.94 µM,–,0.58 µM,–,1.42 µM,–,11.8 µM,–,3.94 µM
Cn1c(=S)c2[nH]c(SCCN3C(=O)c4ccccc4C3=O)nc2n(C)c1=O,–,> 100 µM,–,> 100 µM,–,> 100 µM,–,> 100 µM,–,> 100 µM,–,> 100 µM,–,> 100 µM,–,> 100 µM,–,> 100 µM,–,> 100 µM
O=C(C[P+](c1ccccc1)(c1ccccc1)c1ccccc1)C[P+](c1ccccc1)(c1ccccc1)c1ccccc1,0.81 µM,3.04 µM,0.229 µM,1.05 µM,0.203 µM,0.547 µM,1.46 µM,2.84 µM,0.285 µM,0.734 µM,0.387 µM,1.46 µM,0.141 µM,0.325 µM,0.2 µM,0.605 µM,0.254 µM,1.44 µM,0.218 µM,0.855 µM
O=S(=O)(Nc1ccc(F)c(Cl)c1)c1ccc(-c2cnc(C3CC3)o2)cc1,0.773 µM,13.1 µM,0.318 µM,28.9 µM,0.334 µM,10.4 µM,0.453 µM,14.4 µM,0.259 µM,2.56 µM,0.264 µM,7.13 µM,0.164 µM,3.75 µM,0.196 µM,1.28 µM,0.137 µM,0.547 µM,0.584 µM,6.37 µM
COc1cc(/C=C/c2cc(/C=C/c3ccc(O)c(OC)c3)n(C(=O)Nc3ccc(Cl)cc3)n2)ccc1O,0.653 µM,10.3 µM,0.298 µM,> 21.4 µM,0.354 µM,2.54 µM,0.537 µM,1.85 µM,2.58 µM,6.26 µM,0.37 µM,1.4 µM,0.215 µM,0.802 µM,0.261 µM,0.789 µM,0.444 µM,2.25 µM,0.375 µM,3.16 µM
CN1CCN(CCOc2cc(OC3CCOCC3)c3c(Nc4c(Cl)ccc5c4OCO5)ncnc3c2)CC1,5.27 µM and 3.26 µM,25.9 µM and > 10 µM,21.5 µM and > 10 µM,76.3 µM and > 10 µM,8.75 µM and 2.76 µM,29.2 µM and > 10 µM,5.48 µM and 8.53 µM,26.7 µM and > 10 µM,0.634 µM and 1.26 µM,5.47 µM and > 10 µM,15.4 µM and > 10 µM,31.3 µM and > 10 µM,0.165 µM and 0.346 µM,2.5 µM and > 10 µM,0.788 µM and 1.02 µM,12.6 µM and > 10 µM,0.206 µM and 0.209 µM,3.47 µM and > 10 µM,0.42 µM and 0.373 µM,14.5 µM and > 10 µM
CCS(=O)(=O)c1ccc(OC)c(Nc2ncc(-c3ccccc3Cl)o2)c1,10 µM,> 25 µM,9.78 µM,> 25 µM,10.1 µM,> 25 µM,10.1 µM,> 25 µM,8.01 µM,> 20.5 µM,12.5 µM,> 25 µM,8.95 µM,> 25 µM,7.35 µM,> 21.7 µM,9.11 µM,24.6 µM,6.37 µM,> 25 µM
O=C(CC(=O)c1cccc(Cl)c1)c1cccc(Cl)c1,4.68 µM,> 100 µM,0.874 µM,> 100 µM,1.15 µM,> 100 µM,2.59 µM,> 100 µM,–,–,2.35 µM,> 100 µM,2.72 µM,> 100 µM,3.69 µM,> 100 µM,3.09 µM,> 100 µM,3.98 µM,> 100 µM
